Measured values taken from patent US20200308540A1, “METHODS OF MAKING, EXPANDING, AND USING A HUMAN PROGENITOR T CELL” (REGENTS OF THE UNIVERSITY OF MINNESOTA, priority 2017, published 2020).

Legend:
[1] = system: progenitor T cells (CD7^+ cells); experiment: OP9-DL1 co-culture of SR1-/UM171-expanded cells to generate progenitor T cells; format: cell-based, human; conditions: for CD34 expression during culture with OP9-DL1 cells: cells expanded with compound, then OP9-DL1 culture
Protocol: 1. SR1-expanded cells were suspended in 3 mL of OP9 media then seeded into a plate/flask containing irradiated OP9-DL1 cells at 80% confluency. The human cytokines FLT-3L, IL-7, and SCF were added from a 1,000×stock solution (to 1×final concentration). 2. Additional human cytokines FLT-3L, IL-7, and SCF were added from a 1,000×stock solution (to 1×final concentration) every other day during cell culture. 3. At day 5 and every 3 days to 4 days thereafter, media containing cells was removed, and cells and media were passed through a 70 μm sterile nylon mesh or a 40 μm cell strainer into a 50 mL conical tube. Passage through the mesh or strainer removes OP9-DL1 cells but not cells derived from UCBs. PBS (5 mL) was added, and the coculture was disaggregated by vigorous pipetting (using a 5 mL pipette) and passed through the same cell strainer. […] 4. The cells that passed through the cell strainer were centrifuged at 515-585×g for 5 minutes, the supernatant was removed, and the cells were suspended in 1 mL of OP9 media. At this stage, the cells were counted using a hemocytometer (FIG. 2), assayed by flow cytometry (FIG. 3), or co-culture was continued. For continued co-culture, the cells were transferred into a new 6-well plate already containing OP9-DL1 cells at 80% confluency in 2 mL of OP9 media, and human cytokines FLT-3L, IL-7, and SCF were added from a 1,000×stock solution (to 1×final concentration). 5. Cells were harvested as described in steps 3 and 4 at day 14 or day 21 and phenotype was assessed (see FIG. 2, FIG. 3, and FIG. 7) or the cells were injected into a mouse, as described in Example 5. OP9-DL1 were gamma-irradiated (100 Gy) and seeded onto tissue culture flasks. SR1-UCB and naïve-UCB were seeded 2:1 with OP9-DL1 to generate proT-cells after 13-14 days (Schmitt et al. Immunity. 2002; 17(6):749-756). To examine whether SR1-expanded HSPC could generate proT-cells in vitro, SR1-HSPC were co-cultured with OP9-DL1 (FIG. 11A). […] SR1-HSPC and naïve-HSPC co-cultures had similar % CD34^−CD7^+ cells, % CD7^+CD5^+ cells and % CD7^+CD1a^+ cells (FIG. 11C). […] From SR1-HSPC, an approximately 4-fold expansion of pro-Tcells was observed, similar to naïve-HSPC co-cultures (FIG. 11D). Combining SR1-expansion of HSPCs and use of OP9-DL1 co-cultures, a single starting HSPC yielded approximately 2×10^3 cells, a 200-fold greater expansion of SR1-proT cells over naïve proT-cells (FIG. 11E).

patients = conditions: SR1-expanded cord blood; cited from earlier work
CD34+ stem cells = conditions: median; Wagner et al. 2016; cited from earlier work
[2] = system: CD34^+ hematopoietic stem/progenitor cells (HSPCs); experiment: SR1 expansion culture of umbilical cord blood CD34+ HSPC (15 days); format: cell-based, human
Protocol: Frozen UCB units were thawed using standard methods (Rubinstein et al., Proc Natl Acad Sci USA. 1995; 92:10119-10122). The UCB unit was enriched for CD34^+-cells using the CliniMACS Cell Selection Device (Miltenyi Biotec, Gladbach, Germany) following manufacturer's instructions, and the resulting CD34-enriched cell population was placed in expansion media at a concentration of 5×10^3 cells per milliliter (cells/mL). The expansion culture media included SCF, FLT-3L, TPO, IL-6 (each at 50 ng/ml) and SR1 (750 nM). Cells were cultured in expansion culture media without the addition of antibiotics for 15 days; cytokines were replenished and cells were resuspended at 5×10^3 cells/mL at day 7.
HSC expansion media cultures (Boitano et al. Science. 2010; 329(5997):1345-1348) lasted 15 days prior to freezing.
It was previously reported that naïve-UCB can generate 4- to 5-fold Tprog expansion (Awong et al. Blood. 2009; 114(5):972-982). At least 2×10^5 CD34^+ HSPC are needed for HSCT; but a single UCB unit averages 2.5×10^3 CD34^+ HSPC (Delaney et al. Expert Rev Hematol. 2010; 3(3):273-283). This Example describes an investigation of whether adding SR1 (0.75 μM) to expand CD34^+ HSPC Wagner et al. Cell Stem Cell. 2016; 18(1):144-155) could improve in vitro pro-T generation. CD34^+ HSPC culture reproducibility (FIG. 11A) was characterized. […] 2012; 10(2):120-136).

NSG mice = experiment: Engraftment of progenitor T cells in NSG mice (thymus, spleen); conditions: mouse, in vivo
Protocol: ProT cells generated as described in Example 4 (after 21 days of co-culture) were injected into the liver of 2 day to 5 day old neonatal (NOD/SCID/γcnull (NSG)) mice (3 mice per group) at different cell concentrations/mouse (e.g., 2×10^5 cells, 5×10^5 cells, or 5×10^6 cells in 30 μL, volume). Optionally, 2×10^4 CD34-enriched HSCs, isolated from a UCB unit using the CliniMACS Cell Selection Device (Miltenyi Biotec, Gladbach, Germany) following manufacturer's instruction, were injected simultaneously.
Twelve weeks later, mice were sacrificed, and engraftment of the in vitro-derived ProT cells into immunodeficient mice was assessed by flow cytometry analysis using phenotypic characterization of cells within the thymus and spleen of the recipient mouse. Useful markers for analysis include CD45, CD3/TCR, CD8, CD4, CD5, CD7, and CD1a (antibodies were acquired from eBioscience, San Diego, Calif.).
As shown schematically in FIG. 8, SR1-expanded CD34^+ cells from a UCB unit were put into culture with OP9-DL1 cells for 14 days as described in Example 4. […] Four weeks later the mice were sacrificed and the cells' ability to engraft the thymus was assessed.
Tprogenitors were generated from naïve UCB by co-culture with OP9-DL1 cells for 14 days as described in Example 4. […] Four weeks later the mice were sacrificed and the cells' ability to engraft the thymus was assessed. […]

Compound | cells yielded from a single starting HSPC ([1]; SR1-expansion of HSPCs combined with OP9-DL1 co-culture) | fold increase in ProT cells ([1]; SR1 expansion of human UCB, then co-culture with Notch ligand cell without SR1) [fold] | CD34 expression during culture with OP9-DL1 cells [1] | percentage of culture that is proT cell (CD7^+ cell) ([1]; flow cytometry after OP9-DL1 culture) | fold expansion of pro-T cells in OP9-DL1 co-culture ([1]; from SR1-HSPC, day 14) | fold greater expansion of SR1-proT cells over naïve proT-cells ([1]; normalized to initial CD34+ input cell number) [fold] | median time to neutrophil engraftment (patients) [days] | median time to platelet engraftment (patients) [days] | fold expansion of CD34+ stem cells (CD34+ stem cells) [fold] | fold enhancement of total nuclear cells ([2]; SR1 0.75 μM, by day 15) | fold expansion of CD34^+CD90^+ cells ([2]; SR1 0.75 μM, by day 15) | fold expansion of long-term reconstituting CD34^+CD38^− cells ([2]; SR1 0.75 μM, by day 15) | fold expansion of CD34^+ hematopoietic stem/progenitor cells (HSPCs) ([2]; SR1-expanded umbilical cord blood) | thymus engraftment of cells treated with the compound, after OP9-DL1 co-culture (NSG mice)
CC(C)n1cnc2c(NCCc3ccc(O)cc3)nc(-c3csc4ccccc34)nc21 [SR1, StemRegenin-1] | approximately 2×10^3 cells | 2000 | lose CD34 expression | greater than 90% | approximately 4 fold | 200 | 15 | 49 | 330 | 252-746 fold | 170-415 fold | 157-558 fold | greater than 250 fold | able to engraft the thymus
Cn1nnc(-c2ccc3c(c2)[nH]c2nc(Cc4ccccc4)nc(NC4CCC(N)CC4)c23)n1 (stereo not shown) [UM171] | – | – | lose CD34 expression | – | – | – | – | – | – | – | – | – | – | able to engraft the thymus
